# From the supplement of paper PMC10307832
# Columns and labels:
# Test in all cases: relative viability (nuclei count vs DMSO), 5 days (fraction); higher = more cells survive
# 201T = test system: 201T
# Summary of the method: (§1)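 Cells from lung cancer lines were seeded into 1536-well plates and, one day later, dosed by pin tool. Treatments were either a single drug or a fixed dose of an anchor drug with five library-drug doses (not always all listed) in √10 steps. After 5 days, nuclei were stained in a one-step fixation (final 0.05% Triton X-100, 1% formaldehyde, 1 ug/ml Hoechst) and counted on 4× images, and relative viability is the treated-to-vehicle nuclei ratio, as the median of duplicate plates.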
# A-427 = test system: A-427
# Summary of the method: as §1
# BEN = test system: BEN
# Summary of the method: as §1
# COR-L23 = test system: COR-L23
# Summary of the method: as §1
# EKVX = test system: EKVX
# Summary of the method: as §1
# EMC-BAC-2 = test system: EMC-BAC-2
# Summary of the method: as §1
# EPLC-272H = test system: EPLC-272H
# Summary of the method: as §1
# HCC-44 = test system: HCC-44
# Summary of the method: as §1
# HCC-827 = test system: HCC-827
# Summary of the method: as §1
# LCLC-103H = test system: LCLC-103H
# Summary of the method: as §1
# LK-2 = test system: LK-2
# Summary of the method: as §1
# LXF-289 = test system: LXF-289
# Summary of the method: as §1
# NCI-H1651 = test system: NCI-H1651
# Summary of the method: as §1
# NCI-H1793 = test system: NCI-H1793
# Summary of the method: as §1
# NCI-H1915 = test system: NCI-H1915
# Summary of the method: as §1
# NCI-H2087 = test system: NCI-H2087
# Summary of the method: as §1
# NCI-H2126 = test system: NCI-H2126
# Summary of the method: as §1
# NCI-H2347 = test system: NCI-H2347
# Summary of the method: as §1
# NCI-H358 = test system: NCI-H358
# Summary of the method: as §1
# NCI-H460 = test system: NCI-H460
# Summary of the method: as §1
# NCI-H596 = test system: NCI-H596
# Summary of the method: as §1
# SW 1573 = test system: SW 1573
# Summary of the method: as §1
compound,measurement,setting,value
O=C(O)CCCCC(CCSCc1ccccc1)SCc1ccccc1 (centres undefined) [CPI-613] + C[C@]1(O)C[C@@H](c2nc(-c3ccc4ccc(-c5ccccc5)nc4c3)c3c(N)nccn32)C1 [Linsitinib] (partner 1 µM),relative viability,201T; first compound 5 µM,0.98
same,relative viability,201T; first compound 15.81 µM,0.969
same,relative viability,201T; first compound 50 µM,1.01
same,relative viability,201T; first compound 158.11 µM,0.864
same,relative viability,201T; first compound 500 µM,0.8
same,relative viability,A-427; first compound 5 µM,1.1
same,relative viability,A-427; first compound 15.81 µM,1.12
same,relative viability,A-427; first compound 50 µM,1.02
same,relative viability,A-427; first compound 158.11 µM,0.847
same,relative viability,A-427; first compound 500 µM,0.618
same,relative viability,BEN; first compound 5 µM,0.881
same,relative viability,BEN; first compound 15.81 µM,0.784
same,relative viability,BEN; first compound 50 µM,0.941
same,relative viability,BEN; first compound 158.11 µM,0.747
same,relative viability,BEN; first compound 500 µM,0.72
same,relative viability,COR-L23; first compound 5 µM,0.851
same,relative viability,COR-L23; first compound 15.81 µM,0.918
same,relative viability,COR-L23; first compound 50 µM,0.779
same,relative viability,COR-L23; first compound 158.11 µM,0.334
same,relative viability,COR-L23; first compound 500 µM,0.0236
same,relative viability,EKVX; first compound 5 µM,0.993
same,relative viability,EKVX; first compound 15.81 µM,0.988
same,relative viability,EKVX; first compound 50 µM,0.955
same,relative viability,EKVX; first compound 158.11 µM,1.04
same,relative viability,EKVX; first compound 500 µM,1.05
same,relative viability,EMC-BAC-2; first compound 5 µM,0.733
same,relative viability,EMC-BAC-2; first compound 15.81 µM,0.823
same,relative viability,EMC-BAC-2; first compound 50 µM,0.825
same,relative viability,EMC-BAC-2; first compound 158.11 µM,0.701
same,relative viability,EMC-BAC-2; first compound 500 µM,0.272
same,relative viability,EPLC-272H; first compound 5 µM,1.21
same,relative viability,EPLC-272H; first compound 15.81 µM,1.15
same,relative viability,EPLC-272H; first compound 50 µM,1.05
same,relative viability,EPLC-272H; first compound 158.11 µM,0.759
same,relative viability,EPLC-272H; first compound 500 µM,0.698
same,relative viability,HCC-44; first compound 5 µM,0.625
same,relative viability,HCC-44; first compound 15.81 µM,0.666
same,relative viability,HCC-44; first compound 50 µM,0.717
same,relative viability,HCC-44; first compound 158.11 µM,0.393
same,relative viability,HCC-44; first compound 500 µM,0.0377
same,relative viability,HCC-827; first compound 5 µM,0.967
same,relative viability,HCC-827; first compound 15.81 µM,0.892
same,relative viability,HCC-827; first compound 50 µM,0.906
same,relative viability,HCC-827; first compound 158.11 µM,0.613
same,relative viability,HCC-827; first compound 500 µM,0.0916
same,relative viability,LCLC-103H; first compound 5 µM,1.11
same,relative viability,LCLC-103H; first compound 15.81 µM,1.01
same,relative viability,LCLC-103H; first compound 50 µM,1.08
same,relative viability,LCLC-103H; first compound 158.11 µM,1
same,relative viability,LCLC-103H; first compound 500 µM,0.866
same,relative viability,LK-2; first compound 5 µM,0.526
same,relative viability,LK-2; first compound 15.81 µM,0.637
same,relative viability,LK-2; first compound 50 µM,0.655
same,relative viability,LK-2; first compound 158.11 µM,0.853
same,relative viability,LK-2; first compound 500 µM,0.54
same,relative viability,LXF-289; first compound 5 µM,0.997
same,relative viability,LXF-289; first compound 15.81 µM,0.969
same,relative viability,LXF-289; first compound 50 µM,0.921
same,relative viability,LXF-289; first compound 158.11 µM,0.269
same,relative viability,LXF-289; first compound 500 µM,0.0192
same,relative viability,NCI-H1651; first compound 5 µM,0.968
same,relative viability,NCI-H1651; first compound 15.81 µM,0.92
same,relative viability,NCI-H1651; first compound 50 µM,0.836
same,relative viability,NCI-H1651; first compound 158.11 µM,0.316
same,relative viability,NCI-H1651; first compound 500 µM,0.133
same,relative viability,NCI-H1793; first compound 5 µM,0.822
same,relative viability,NCI-H1793; first compound 50 µM,0.823
same,relative viability,NCI-H1793; first compound 158.11 µM,0.774
same,relative viability,NCI-H1793; first compound 500 µM,0.102
same,relative viability,NCI-H1915; first compound 5 µM,1.11
same,relative viability,NCI-H1915; first compound 15.81 µM,1.07
same,relative viability,NCI-H1915; first compound 50 µM,1.04
same,relative viability,NCI-H1915; first compound 158.11 µM,0.964
same,relative viability,NCI-H1915; first compound 500 µM,0.626
same,relative viability,NCI-H2087; first compound 5 µM,1.01
same,relative viability,NCI-H2087; first compound 15.81 µM,0.758
same,relative viability,NCI-H2087; first compound 50 µM,0.868
same,relative viability,NCI-H2087; first compound 158.11 µM,0.178
same,relative viability,NCI-H2087; first compound 500 µM,0.0125
same,relative viability,NCI-H2126; first compound 5 µM,0.721
same,relative viability,NCI-H2126; first compound 15.81 µM,0.751
same,relative viability,NCI-H2126; first compound 50 µM,0.712
same,relative viability,NCI-H2126; first compound 158.11 µM,0.534
same,relative viability,NCI-H2126; first compound 500 µM,0.567
same,relative viability,NCI-H2347; first compound 5 µM,0.983
same,relative viability,NCI-H2347; first compound 15.81 µM,0.857
same,relative viability,NCI-H2347; first compound 50 µM,0.86
same,relative viability,NCI-H2347; first compound 158.11 µM,0.874
same,relative viability,NCI-H2347; first compound 500 µM,0.868
same,relative viability,NCI-H358; first compound 5 µM,0.684
same,relative viability,NCI-H358; first compound 15.81 µM,0.769
same,relative viability,NCI-H358; first compound 50 µM,0.743
same,relative viability,NCI-H358; first compound 158.11 µM,0.347
same,relative viability,NCI-H358; first compound 500 µM,0.0758
same,relative viability,NCI-H460; first compound 5 µM,0.751
same,relative viability,NCI-H460; first compound 15.81 µM,0.737
same,relative viability,NCI-H460; first compound 50 µM,0.78
same,relative viability,NCI-H460; first compound 158.11 µM,0.125
same,relative viability,NCI-H460; first compound 500 µM,0.0075
same,relative viability,NCI-H596; first compound 5 µM,1.02
same,relative viability,NCI-H596; first compound 15.81 µM,1.04
same,relative viability,NCI-H596; first compound 50 µM,1.14
same,relative viability,NCI-H596; first compound 158.11 µM,0.519
same,relative viability,NCI-H596; first compound 500 µM,0.0361
same,relative viability,SW 1573; first compound 5 µM,0.878
same,relative viability,SW 1573; first compound 15.81 µM,0.751
same,relative viability,SW 1573; first compound 50 µM,0.816
same,relative viability,SW 1573; first compound 158.11 µM,0.625
same,relative viability,SW 1573; first compound 500 µM,0.576
